Assay [1] concerns symmetric dimethylation of arginine (SDMA) of PRMT5 substrates in MCF-7 cells. The assay is described as follows: PRMT5 Cell Target Engagement (TE) Assay. It is filed as cell-based. As to conditions: Homo sapiens, MCF7, 72 h, 3 days treatment, SDMA high content imaging. Summed up: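 MCF-7 cells treated 3 days at 37 °C with a ten-point 1:3 titration from 10000 nM. Fixed cells immunostained with anti-SDMA and Alexa488 secondary; nuclear fluorescence quantified by high-content imaging versus DMSO wells, with IC50 from a 4-parameter fit.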

Assay [2] deals with T1, Full-length (FL)-PRMT5-MEP50 enzyme complex (Homo sapiens, UniProt O14744).
T1 construct: Full-length (FL)-PRMT5-MEP50 enzyme complex (recombinant proteins from baculovirus-transfected Sf21 cells: FL-PRMT5; MW=73837 kDa and FL-MEP50; MW=38614); made in house; host or cells: baculovirus-transfected Sf21 cells
The assay is described as follows: PRMT5-MEP50 Enzyme Methylation Assay (Version A). It is filed as biochemical. The method, boiled down:
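Compound was pre-incubated with enzyme for 60 min, then reacted 150 min at 37° C. at final 1.0 nM PRMT5-MEP50, 15 μM SAM and 75 nM biotinylated H4R3(Me1) peptide, in 50 mM Bicine pH 8.0 with 1% DMSO. SAMDI mass-spectrometric readout of Me1→Me2 conversion. EC50 from 4- or 7-parameter regression.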

[3] abbreviates: second value of 7 parameter biphasic fit, read-out: Enzyme Methylation Assay Version A (EC50 2).
Setting [4] is: single EC50 = 4 parameter single site sigmoidal fit, EC50 1 = first value of 7 parameter biphasic fit, read-out: Enzyme Methylation Assay Version A (EC50 or EC50 1).

SMILES strings stand for the structures. Where two headings read alike, the source gives them in different places.

T1 sequence (O14744 whole entry): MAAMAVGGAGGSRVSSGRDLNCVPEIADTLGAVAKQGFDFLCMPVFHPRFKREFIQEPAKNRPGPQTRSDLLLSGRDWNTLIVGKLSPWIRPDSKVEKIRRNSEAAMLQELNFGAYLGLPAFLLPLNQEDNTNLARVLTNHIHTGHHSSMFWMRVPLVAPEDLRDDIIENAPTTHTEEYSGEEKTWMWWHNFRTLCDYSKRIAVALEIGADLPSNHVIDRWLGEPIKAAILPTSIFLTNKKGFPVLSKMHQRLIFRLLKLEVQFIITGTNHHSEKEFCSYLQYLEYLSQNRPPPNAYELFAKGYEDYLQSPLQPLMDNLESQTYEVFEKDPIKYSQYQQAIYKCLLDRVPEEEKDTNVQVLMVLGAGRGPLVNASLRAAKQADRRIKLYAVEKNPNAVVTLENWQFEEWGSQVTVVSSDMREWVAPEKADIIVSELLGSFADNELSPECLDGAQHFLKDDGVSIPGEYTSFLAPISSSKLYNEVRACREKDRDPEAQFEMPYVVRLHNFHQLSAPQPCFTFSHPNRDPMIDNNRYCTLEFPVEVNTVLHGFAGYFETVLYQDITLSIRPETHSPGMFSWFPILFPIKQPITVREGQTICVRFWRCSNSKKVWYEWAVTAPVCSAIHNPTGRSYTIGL
T1 sequence (Q9BQA1 whole entry partner): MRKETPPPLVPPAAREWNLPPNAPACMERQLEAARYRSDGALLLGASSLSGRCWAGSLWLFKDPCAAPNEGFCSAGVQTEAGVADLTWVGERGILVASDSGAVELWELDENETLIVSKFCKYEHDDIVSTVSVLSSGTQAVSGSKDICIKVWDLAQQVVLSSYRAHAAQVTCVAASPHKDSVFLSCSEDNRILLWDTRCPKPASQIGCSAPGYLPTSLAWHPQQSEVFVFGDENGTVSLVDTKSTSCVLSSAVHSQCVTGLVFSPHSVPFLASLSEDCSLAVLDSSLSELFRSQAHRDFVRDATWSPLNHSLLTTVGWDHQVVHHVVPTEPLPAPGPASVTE

Turning to `Cc1cc(Cl)c2nc(C(=O)N3CC[C@]4(Cc5ccccc5CN4)[C@H](O)C3)cn2c1` [Example 207, (8-chloro-6-methylimidazo[1,2-a]pyridin-2-yl)[(3R,3′R)-3′-hydroxy-1,4-dihydro-1′H,2H-spiro[isoquinoline-3,4′-piperidin]-1′-yl]methanone], the EC50 in assay [1] amounted to 27.6 nM; in assay [2] (setting [3]) it was 288 nM; in assay [2] (setting [4]), 0.382 nM.

`O=C(c1cn2cc(F)cc(Br)c2n1)N1CC[C@]2(Cc3ccccc3CN2)[C@H](O)C1` [Example 208, (8-bromo-6-fluoroimidazo[1,2-a]pyridin-2-yl)[(3R,3′R)-3′-hydroxy-1,4-dihydro-1′H,2H-spiro[isoquinoline-3,4′-piperidin]-1′-yl]methanone]: the EC50 in assay [1] is 100 nM; in assay [2] (setting [3]) it was 692 nM; in assay [2] (setting [4]), 0.763 nM.

Regarding `O=C(c1cn2cccc(Br)c2n1)N1CC[C@]2(Cc3ccccc3CN2)[C@H](O)C1` [Example 209, (8-bromoimidazo[1,2-a]pyridin-2-yl)[(3R,3′R)-3′-hydroxy-1,4-dihydro-1′H,2H-spiro[isoquinoline-3,4′-piperidin]-1′-yl]methanone], the figures for the EC50 in assay [1], in assay [2] (setting [3]) and in assay [2] (setting [4]) were 256 nM, 3890 nM and 3.74 nM, respectively.

Consider `O=C(c1cn2cc(Cl)cc(Br)c2n1)N1CC[C@]2(Cc3ccccc3CN2)[C@H](O)C1` [Example 210, (8-bromo-6-chloroimidazo[1,2-a]pyridin-2-yl)[(3R,3′R)-3′-hydroxy-1,4-dihydro-1′H,2H-spiro[isoquinoline-3,4′-piperidin]-1′-yl]methanone], for which the EC50 in assay [1] was 12.4 nM; in assay [2] (setting [3]) it was 55 nM; in assay [2] (setting [4]), 0.207 nM.

For the molecule `O=C(c1cn2cc(C(F)(F)F)cc(Cl)c2n1)N1CC[C@]2(Cc3ccccc3CN2)[C@H](O)C1` [Example 211, [8-chloro-6-(trifluoromethyl)imidazo[1,2-a]pyridin-2-yl][(3R,3′R)-3′-hydroxy-1,4-dihydro-1′H,2H-spiro[isoquinoline-3,4′-piperidin]-1′-yl]methanone], the values for the EC50 in assay [1], in assay [2] (setting [3]) and in assay [2] (setting [4]) were 7.99 nM, 71.6 nM and 0.191 nM, respectively.

For the molecule `O=C(c1cn(-c2ccc(F)cc2)cn1)N1CC[C@]2(Cc3ccccc3CN2)[C@H](O)C1` [Example 212, [1-(4-fluorophenyl)-1H-imidazol-4-yl][(3R,3′R)-3′-hydroxy-1,4-dihydro-1′H,2H-spiro[isoquinoline-3,4′-piperidin]-1′-yl]methanone], the EC50 stood at 3120 nM in assay [1], 21400 nM in assay [2] (setting [3]) and 902 nM in assay [2] (setting [4]).

`COc1ccc(C)cc1-n1cnc(C(=O)N2CC[C@]3(Cc4ccccc4CN3)[C@H](O)C2)c1` [Example 213, [(3R,3′R)-3′-hydroxy-1,4-dihydro-1′H,2H-spiro[isoquinoline-3,4′-piperidin]-1′-yl][1-(2-methoxy-5-methylphenyl)-1H-imidazol-4-yl]methanone]: the EC50 came out at 209 nM in assay [1], 343 nM in assay [2] (setting [3]) and 4.33 nM in assay [2] (setting [4]).

Consider `O=C(c1cn2cc(Cl)cc(Cl)c2n1)N1CC[C@]2(Cc3ccccc3CN2)[C@H](O)C1` [Example 214, (6,8-dichloroimidazo[1,2-a]pyridin-2-yl)[(3R,3′R)-3′-hydroxy-1,4-dihydro-1′H,2H-spiro[isoquinoline-3,4′-piperidin]-1′-yl]methanone], for which the values for the EC50 in assay [1], in assay [2] (setting [3]) and in assay [2] (setting [4]) were 9 nM, 47.9 nM and 1.12 nM, respectively.

Take `N#Cc1cc(Cl)c2nc(C(=O)N3CC[C@]4(Cc5ccccc5CN4)[C@H](O)C3)cn2c1` [Example 215, 8-chloro-2-{[(3R,3′R)-3′-hydroxy-1,4-dihydro-1′H,2H-spiro[isoquinoline-3,4′-piperidin]-1′-yl]carbonyl}imidazo[1,2-a]pyridine-6-carbonitrile]: the results for the EC50 in assay [1] and in assay [2] (setting [4]) were 122 nM and 56.7 nM, respectively.

With `O=C(c1cn2ccc(Cl)c(I)c2n1)N1CC[C@]2(Cc3ccccc3CN2)[C@H](O)C1` [Example 216, (7-chloro-8-iodoimidazo[1,2-a]pyridin-2-yl)[(3R,3′R)-3′-hydroxy-1,4-dihydro-1′H,2H-spiro[isoquinoline-3,4′-piperidin]-1′-yl]methanone], the EC50 in assay [1] was 711 nM; in assay [2] (setting [3]), 2540 nM; in assay [2] (setting [4]), 26.3 nM.

As for `O=C(c1cn2cc(Br)cc(F)c2n1)N1CC[C@]2(Cc3ccccc3CN2)[C@H](O)C1` [Example 217, (6-bromo-8-fluoroimidazo[1,2-a]pyridin-2-yl)[(3R,3′R)-3′-hydroxy-1,4-dihydro-1′H,2H-spiro[isoquinoline-3,4′-piperidin]-1′-yl]methanone], the EC50 in assay [1] turned out to be 11.3 nM; in assay [2] (setting [3]), 40.3 nM; in assay [2] (setting [4]), 0.73 nM.

For `O=C(c1cn2cc(Br)cc(Br)c2n1)N1CC[C@]2(Cc3ccccc3CN2)[C@H](O)C1` [Example 218, (6,8-dibromoimidazo[1,2-a]pyridin-2-yl)[(3R,3′R)-3′-hydroxy-1,4-dihydro-1′H,2H-spiro[isoquinoline-3,4′-piperidin]-1′-yl]methanone], the EC50 worked out at 4.07 nM in assay [1] and 1.97 nM in assay [2] (setting [4]).

With `Cc1ccc(C(=O)N2CC[C@]3(Cc4ccccc4CN3)[C@H](O)C2)c(O)n1` [Example 219, 3-{[(3R,3′R)-3′-hydroxy-1,4-dihydro-1′H,2H-spiro[isoquinoline-3,4′-piperidin]-1′-yl]carbonyl}-6-methyl-2(1H)-pyridinone], the values for the EC50 in assay [1], in assay [2] (setting [3]) and in assay [2] (setting [4]) were 4160 nM, 17400 nM and 204 nM, respectively.

Regarding `Cc1ccc(C(=O)N2CC[C@]3(Cc4ccccc4CN3)[C@H](O)C2)c(C)n1` [Example 220, (2,6-dimethyl-3-pyridinyl)[(3R,3′R)-3′-hydroxy-1,4-dihydro-1′H,2H-spiro[isoquinoline-3,4′-piperidin]-1′-yl]methanone], the EC50 in assay [1] stood at 2100 nM; in assay [2] (setting [3]) it was 2600 nM; in assay [2] (setting [4]) it was 83.2 nM.

`Cc1ccc(C(=O)N2CC[C@]3(Cc4ccccc4CN3)[C@H](O)C2)cn1` [Example 221, [(3R,3′R)-3′-hydroxy-1,4-dihydro-1′H,2H-spiro[isoquinoline-3,4′-piperidin]-1′-yl](6-methyl-3-pyridinyl)methanone]: the EC50 was found to be 2540 nM in assay [1], 3510 nM in assay [2] (setting [3]) and 43.6 nM in assay [2] (setting [4]).

`O=C(c1cn(C2CC2)cn1)N1CC[C@]2(Cc3ccccc3CN2)[C@H](O)C1` [Example 222, (1-cyclopropyl-1H-imidazol-4-yl)[(3R,3′R)-3′-hydroxy-1,4-dihydro-1′H,2H-spiro[isoquinoline-3,4′-piperidin]-1′-yl]methanone]: the EC50 in assay [1] is not below 10000 nM; in assay [2] (setting [3]), 25400 nM; in assay [2] (setting [4]) it was 432 nM.

Turning to `Cc1cn2cc(C(=O)N3CC[C@]4(Cc5ccccc5CN4)[C@H](O)C3)nc2s1` [Example 223, [(3R,3′R)-3′-hydroxy-1,4-dihydro-1′H,2H-spiro[isoquinoline-3,4′-piperidin]-1′-yl](2-methylimidazo[2,1-b][1,3]thiazol-6-yl)methanone], the values for the EC50 in assay [1], in assay [2] (setting [3]) and in assay [2] (setting [4]) were 445 nM, 631 nM and 22.1 nM, respectively.

Values taken from US12441730B2, “PRMT5 inhibitors” (Merck Sharp & Dohme LLC, priority 2019, dated 2025).
